Assays:
Format in all cases: in vivo
[1] = system: experimental allergic encephalomyelitis (EAE) in DA rats; test: Treatment of EAE in DA rats with liposomally encapsulated MBP peptides (Example 5); conditions: 150 μg per animal daily subdermally days 6-11, score 0-5
Description: To induce experimental allergic encephalomyelitis (EAE) in DA rats having a mass of 220-250 g ([…]), 10 μg of myelin basic protein encephalogenic peptide fragment ARTTHYGSLPQKSQRSQ (SEQ ID NO:4; Anaspec, US) emulsified in Freund's complete adjuvant (Difco, US) at a concentration of 10% (m/v) was subdermally injected into the forepaw. The rats were weighted and monitored for EAE neurological symptoms daily. The EAE symptom profile of each rate was scored according to the following scale: (0)—absence of EAE symptoms; (1)—decrease in tail tonicity; (2)—decrease in righting reflex; (3)—paresis; (4)—full paralysis; and (5)—agony or death. Intermediary symptoms were scored by increasing or decreasing the value by 0.5 units. Six days after EAE induction, animals were randomly distributed into several groups (12 animals each).
Between days six and eleven after induction, rats in each respective group were subdermally injected with the liposomal preparation described in Example 2 (emulsified in phosphate saline solution, pH 7.4), a positive control preparation of glatiramer acetate (GA; copaxone, Teva Pharmaceutical Industries Ltd, Israel), a prototype peptide: DENPVVIIFFKNIVTPRT (SEQ ID NO:5), or a buffered phosphate saline solution (pH 7.4) placebo. The peptide, Glatiramer acetate, and liposomal preparations were formulated immediately prior to administration using buffered phosphate saline solution (pH 7.4). 0.1 mL of each composition was administered daily at a concentration of 150 μg per animal.

anti-MBP autoantibody = test: Serum anti-MBP autoantibody titer in EAE DA rats (Example 11); conditions: EAE DA rats treated as in Example 10
Description: To determine anti-MBP autoantibody binding patters in sera from the EAE-induced rodent models and human MS patients, ELISA experiments were performed as follows. Microtiter plates (MaxiSorp-Nunc) were coated with 50 μl of a 10 μg/ml MBP solution or recombinant MBP peptides in 100 mM carbonate/bicarbonate buffer pH 9.0, in odd column wells. Plates were sealed with ELISA plate sealer (Costar) and incubated at 4° C. overnight and then washed (300 μl/well) three times with phosphate-buffered saline (PBS) containing 0.15% Tween-20. All the wells were then blocked with 250 μl 2% bovine serum albumin (BSA) (Sigma) in carbonate/bicarbonate buffer pH 9.0 and incubated for 1 hr at 37° C. The plates were washed with PBS containing 0.15% Tween-20. Serum antibodies were diluted in PBS containing 0.15% Tween-20 and 0.5% BSA at the final dilution of 1:1000-1:50000, and 50 μl of the diluted sample was added to each well of the plate. Rat anti-MBP monoclonal antibody (ab7349, Abcam) was used as control. […] The OD450 values were measured using a microplate reader Varioscan (Thermo, USA).
To investigate the immunological status of EAE induced DA rats after treatment with liposomally encapsulated MBP peptides, serum isolated from rats treated as described in Example 10 was analyzed for anti-MBP antibodies and CNS cytokine staining (FIG. 5). […]

EAE-induced DA rats = test: EAE-induced DA rat model, paralysis score and mortality (DA-EAE-28-05, Example 14); conditions: versus water control (Group 1); days 1-4 post-treatment; daily s.c., 6 total; n=6
Description: Each of the four MBP peptide formulations being evaluated were provided as lyophilized powders and stored at 4° C. Each formulation was rehydrated in water for injection according to Table 13. Copaxone (Teva LTD) was diluted with Saline to a final concentration of 720 μg/mL. Each subject animal was administered the test formulation for 6 consecutive days by subcutaneous injection.
8-9 week old Dark Agouti (DA) female rats (Harlan Laboratories, Inc.), weighing between 110 and 145 grams were used as the test subjects. The health status of the animals used in this study was examined on arrival. Only animals in good health were acclimatized to laboratory conditions and were used in the study. Animals were provided food ad libitum and free access to drinking water. Animals were housed in a controlled environment at between 20° C. and 24° C. with a relative humidity of 30-70% and a 12 hr light/12 hr dark cycle. Animals were randomly assigned to their respective test group. […]
The rats were evaluated up daily starting 24 hours after immunization. […] The animals were maintained and evaluated until day 28th post EAE-induction. […]
Animals were observed individually and clinical signs were recorded once daily during all study periods. […] The body weight of each animals was determined daily during all study periods.

glatiramer acetate [copaxone]
Evaluation of EAE symptom intensity, average ([1]; day 0 after EAE induction): 0.00 | Evaluation of EAE symptom intensity, average ([1]; day 1 after EAE induction): 0.00 | Evaluation of EAE symptom intensity, average ([1]; day 2 after EAE induction): 0.00 | Evaluation of EAE symptom intensity, average ([1]; day 3 after EAE induction): 0.00 | Evaluation of EAE symptom intensity, average ([1]; day 4 after EAE induction): 0.00 | Evaluation of EAE symptom intensity, average ([1]; day 5 after EAE induction): 0.00 | Evaluation of EAE symptom intensity, average ([1]; day 6 after EAE induction): 0.00 | Evaluation of EAE symptom intensity, average ([1]; day 7 after EAE induction): 0.00 | Evaluation of EAE symptom intensity, average ([1]; day 8 after EAE induction): 0.50 | Evaluation of EAE symptom intensity, average ([1]; day 9 after EAE induction): 1.67 | Evaluation of EAE symptom intensity, average ([1]; day 10 after EAE induction): 2.17 | Evaluation of EAE symptom intensity, average ([1]; day 11 after EAE induction): 2.25 | Evaluation of EAE symptom intensity, average ([1]; day 12 after EAE induction): 2.25 | Evaluation of EAE symptom intensity, average ([1]; day 13 after EAE induction): 2.83 | Evaluation of EAE symptom intensity, average ([1]; day 14 after EAE induction): 2.75 | Evaluation of EAE symptom intensity, average ([1]; day 15 after EAE induction): 2.33 | Evaluation of EAE symptom intensity, average ([1]; day 16 after EAE induction): 2.08 | Evaluation of EAE symptom intensity, average ([1]; day 17 after EAE induction): 2.17 | Evaluation of EAE symptom intensity, average ([1]; day 18 after EAE induction): 2.17 | Evaluation of EAE symptom intensity, average ([1]; day 19 after EAE induction): 1.75 | Evaluation of EAE symptom intensity, average ([1]; day 20 after EAE induction): 1.67 | Evaluation of EAE symptom intensity, average ([1]; day −1 after EAE induction): 0.00 | Serum anti-MBP Antibody titer (anti-MBP autoantibody): 1.0 ± 0.1 | paralysis score (EAE-induced DA rats): non-statistically significant difference (tendency)
